Results published in US20230085307A1, “PYRIDAZINONE COMPOUND AND HERBICIDE” (NISSAN CHEMICAL CORPORATION, priority 2019, published 2023).

Tests used:
[1] = system: late watergrass; assay: Test Example 1: herbicidal activity, application before weed generation under submerged conditions (Table 16, symbol A); type: in vivo, late watergrass (Echinochloa oryzicola)
Method in brief: (§1)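 Emulsion formulation, water-diluted to set dose, was put onto the flooded surface (4 cm depth, alluvial soil) the same day weeds were sown and 2.5-leaf rice transplanted. After 3 weeks at 25-30 °C under glass, each species was rated 0 (≤5% kill) to 5 (≥90% kill).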

[2] = system: Japanese bulrush; assay: Test Example 1: herbicidal activity, application before weed generation under submerged conditions (Table 16, symbol B); type: in vivo, Japanese bulrush (Schoenoplectus juncoides)
Method in brief: as §1

[3] = system: oval-leafed pondweed; assay: Test Example 1: herbicidal activity, application before weed generation under submerged conditions (Table 16, symbol C); type: in vivo, oval-leafed pondweed (Monochoria vaginalis)
Method in brief: as §1

[4] = system: barnyard grass; assay: Test Example 3: herbicidal effect by foliage application, Wagner pot (Table 18, symbol H); type: in vivo, barnyard grass (Echinochloa crus-galli)
Method in brief: (§2)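 Plants were sown in alluvial soil held under 0.1–0.5 cm standing water and grown 14 days in a greenhouse at 25–30 °C. An emulsifiable formulation, water-diluted to the set dose, was then sprayed onto the foliage, and effects were scored three weeks later using previously defined criteria.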

[5] = system: Chinese sprangletop; assay: Test Example 3: herbicidal effect by foliage application, Wagner pot (Table 18, symbol D); type: in vivo, chinese sprangletop (Leptochloa chinensis)
Method in brief: as §2

[6] = system: rice flat sedge; assay: Test Example 3: herbicidal effect by foliage application, Wagner pot (Table 18, symbol E); type: in vivo, rice flat sedge (Cyperus iria)
Method in brief: as §2

[7] = system: southern crabgrass; assay: Test Example 4: herbicidal effect by soil treatment (Table 19, symbol F); type: in vivo, southern crabgrass (Digitaria ciliaris); conditions: amount of applied herbicide 320 g/ha
Method in brief: (§3)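 Pre-emergence style soil spray: seeds under ~1.5 cm sterilized diluvial soil received a uniform coat of emulsion diluted to the predetermined herbicide amount. Greenhouse 25–30° C; readout at week three on previously defined criteria.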

[8] = system: green foxtail; assay: Test Example 4: herbicidal effect by soil treatment (Table 19, symbol G); type: in vivo, green foxtail (Setaria viridis); conditions: amount of applied herbicide 320 g/ha
Method in brief: as §3

[9] = system: barnyard grass; assay: Test Example 4: herbicidal effect by soil treatment (Table 19, symbol H); type: in vivo, barnyard grass (Echinochloa crus-galli); conditions: amount of applied herbicide 320 g/ha
Method in brief: as §3

[10] = system: wild oat; assay: Test Example 4: herbicidal effect by soil treatment (Table 19, symbol I); type: in vivo, wild oat (Avena fatua); conditions: amount of applied herbicide 320 g/ha
Method in brief: as §3

[11] = system: blackgrass; assay: Test Example 4: herbicidal effect by soil treatment (Table 19, symbol J); type: in vivo, blackgrass (Alopecurus myosuroides); conditions: amount of applied herbicide 320 g/ha
Method in brief: as §3

[12] = system: Italian ryegrass; assay: Test Example 4: herbicidal effect by soil treatment (Table 19, symbol K); type: in vivo, Italian ryegrass (Lolium multiflorum); conditions: amount of applied herbicide 320 g/ha
Method in brief: as §3

[13] = system: windgrass; assay: Test Example 4: herbicidal effect by soil treatment (Table 19, symbol L); type: in vivo, windgrass (Apera spica-venti); conditions: amount of applied herbicide 320 g/ha
Method in brief: as §3

[14] = system: velvetleaf; assay: Test Example 4: herbicidal effect by soil treatment (Table 19, symbol M); type: in vivo, velvetleaf (Abutilon theophrasti); conditions: amount of applied herbicide 320 g/ha
Method in brief: as §3

[15] = system: redroot pigweed; assay: Test Example 4: herbicidal effect by soil treatment (Table 19, symbol N); type: in vivo, redroot pigweed (Amaranthus retroflexus); conditions: amount of applied herbicide 320 g/ha
Method in brief: as §3

[16] = system: lambsquarters; assay: Test Example 4: herbicidal effect by soil treatment (Table 19, symbol O); type: in vivo, lambsquarters (Chenopodium album); conditions: amount of applied herbicide 320 g/ha
Method in brief: as §3

[17] = system: chickweed; assay: Test Example 4: herbicidal effect by soil treatment (Table 19, symbol P); type: in vivo, common chickweed (Stellaria media); conditions: amount of applied herbicide 320 g/ha
Method in brief: as §3

[18] = system: persian speedwell; assay: Test Example 4: herbicidal effect by soil treatment (Table 19, symbol R); type: in vivo, Persian speedwell (Veronica persica); conditions: amount of applied herbicide 320 g/ha
Method in brief: as §3

[19] = system: southern crabgrass; assay: Test Example 5: herbicidal effect by foliage application, plastic box (Table 20, symbol F); type: in vivo, southern crabgrass (Digitaria ciliaris); conditions: foliage application, 320 g/ha
Method in brief: (§4)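 Plants were sown into sterilized diluvial soil under about 1.5 cm cover and kept in a greenhouse at 25° C. to 30° C. Fourteen days on, foliage received an even spray of the diluted emulsion. Herbicidal or crop effect was judged three weeks afterwards.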

[20] = system: green foxtail; assay: Test Example 5: herbicidal effect by foliage application, plastic box (Table 20, symbol G); type: in vivo, green foxtail (Setaria viridis); conditions: foliage application, 320 g/ha
Method in brief: as §4

[21] = system: barnyard grass; assay: Test Example 5: herbicidal effect by foliage application, plastic box (Table 20, symbol H); type: in vivo, barnyard grass (Echinochloa crus-galli); conditions: foliage application, 320 g/ha
Method in brief: as §4

[22] = system: wild oat; assay: Test Example 5: herbicidal effect by foliage application, plastic box (Table 20, symbol I); type: in vivo, wild oat (Avena fatua); conditions: foliage application, 320 g/ha
Method in brief: as §4

[23] = system: blackgrass; assay: Test Example 5: herbicidal effect by foliage application, plastic box (Table 20, symbol J); type: in vivo, blackgrass (Alopecurus myosuroides); conditions: foliage application, 320 g/ha
Method in brief: as §4

[24] = system: Italian ryegrass; assay: Test Example 5: herbicidal effect by foliage application, plastic box (Table 20, symbol K); type: in vivo, Italian ryegrass (Lolium multiflorum); conditions: foliage application, 320 g/ha
Method in brief: as §4

[25] = system: windgrass; assay: Test Example 5: herbicidal effect by foliage application, plastic box (Table 20, symbol L); type: in vivo, windgrass (Apera spica-venti); conditions: foliage application, 320 g/ha
Method in brief: as §4

[26] = system: velvetleaf; assay: Test Example 5: herbicidal effect by foliage application, plastic box (Table 20, symbol M); type: in vivo, velvetleaf (Abutilon theophrasti); conditions: foliage application, 320 g/ha
Method in brief: as §4

[27] = system: redroot pigweed; assay: Test Example 5: herbicidal effect by foliage application, plastic box (Table 20, symbol N); type: in vivo, redroot pigweed (Amaranthus retroflexus); conditions: foliage application, 320 g/ha
Method in brief: as §4

[28] = system: lambsquarters; assay: Test Example 5: herbicidal effect by foliage application, plastic box (Table 20, symbol O); type: in vivo, lambsquarters (Chenopodium album); conditions: foliage application, 320 g/ha
Method in brief: as §4

[29] = system: chickweed; assay: Test Example 5: herbicidal effect by foliage application, plastic box (Table 20, symbol P); type: in vivo, common chickweed (Stellaria media); conditions: foliage application, 320 g/ha
Method in brief: as §4

[30] = system: false cleavers; assay: Test Example 5: herbicidal effect by foliage application, plastic box (Table 20, symbol Q); type: in vivo, false cleavers (Galium spurium); conditions: foliage application, 320 g/ha
Method in brief: as §4

[31] = system: persian speedwell; assay: Test Example 5: herbicidal effect by foliage application, plastic box (Table 20, symbol R); type: in vivo, Persian speedwell (Veronica persica); conditions: foliage application, 320 g/ha
Method in brief: as §4

[32] = amount of applied herbicide 320 g/ha
[33] = evaluated three weeks after application

## CCCC(=O)Oc1c(C)nn(C)c(=O)c1-c1c(-c2ccc(OC)c(F)c2)sc2ccc(Cl)cc12 [2-118]
[1]; 320 g/ha applied herbicide
  Herbicidal effect on A: late watergrass (grade 0-5): 4 (Herbicidal rate of 70% or more and less than 90%)
[2]; 320 g/ha applied herbicide
  Herbicidal effect on B: Japanese bulrush (grade 0-5): 3 (Herbicidal rate of 40% or more and less than 70%)
[3]; 320 g/ha applied herbicide
  Herbicidal effect on C: oval-leafed pondweed (grade 0-5): 0 (Herbicidal rate of 5% or less (almost no effect))
[4]; [32]
  herbicidal effect on H: barnyard grass: 2 (Herbicidal rate of 20% or more and less than 40%)
[5]; [32]
  herbicidal effect on D: Chinese sprangletop: 0 (Herbicidal rate of 5% or less (almost no effect))
[6]; [32]
  herbicidal effect on E: rice flat sedge: 0 (Herbicidal rate of 5% or less (almost no effect))
[7]
  F: southern crabgrass, herbicidal effect rating: 0 (Herbicidal rate of 5% or less (almost no effect))
[8]
  G: green foxtail, herbicidal effect rating: 0 (Herbicidal rate of 5% or less (almost no effect))
[9]
  H: barnyard grass, herbicidal effect rating: 0 (Herbicidal rate of 5% or less (almost no effect))
[10]
  I: wild oat, herbicidal effect rating: 0 (Herbicidal rate of 5% or less (almost no effect))
[11]
  J: blackgrass, herbicidal effect rating: 0 (Herbicidal rate of 5% or less (almost no effect))
[12]
  K: Italian ryegrass, herbicidal effect rating: 0 (Herbicidal rate of 5% or less (almost no effect))
[13]
  L: windgrass, herbicidal effect rating: 0 (Herbicidal rate of 5% or less (almost no effect))
[14]
  M: velvetleaf, herbicidal effect rating: 1 (Herbicidal rate of 5% or more and less than 20%)
[15]
  N: redroot pigweed, herbicidal effect rating: 0 (Herbicidal rate of 5% or less (almost no effect))
[16]
  O: lambsquarters, herbicidal effect rating: 2 (Herbicidal rate of 20% or more and less than 40%)
[17]
  P: chickweed, herbicidal effect rating: 4 (Herbicidal rate of 70% or more and less than 90%)
[18]
  R: persian speedwell, herbicidal effect rating: 5 (Herbicidal rate of 90% or more (almost completely withered))
[19]; [33]
  herbicidal effect on F: southern crabgrass: 0 (Herbicidal rate of 5% or less (almost no effect))
[20]; [33]
  herbicidal effect on G: green foxtail: 0 (Herbicidal rate of 5% or less (almost no effect))
[21]; [33]
  herbicidal effect on H: barnyard grass: 0 (Herbicidal rate of 5% or less (almost no effect))
[22]; [33]
  herbicidal effect on I: wild oat: 0 (Herbicidal rate of 5% or less (almost no effect))
[23]; [33]
  herbicidal effect on J: blackgrass: 0 (Herbicidal rate of 5% or less (almost no effect))
[24]; [33]
  herbicidal effect on K: Italian ryegrass: 0 (Herbicidal rate of 5% or less (almost no effect))
[25]; [33]
  herbicidal effect on L: windgrass: 0 (Herbicidal rate of 5% or less (almost no effect))
[26]; [33]
  herbicidal effect on M: velvetleaf: 3 (Herbicidal rate of 40% or more and less than 70%)
[27]; [33]
  herbicidal effect on N: redroot pigweed: 0 (Herbicidal rate of 5% or less (almost no effect))
[28]; [33]
  herbicidal effect on O: lambsquarters: 1 (Herbicidal rate of 5% or more and less than 20%)
[29]; [33]
  herbicidal effect on P: chickweed: 5 (Herbicidal rate of 90% or more (almost completely withered))
[30]; [33]
  herbicidal effect on Q: false cleavers: 1 (Herbicidal rate of 5% or more and less than 20%)
[31]; [33]
  herbicidal effect on R: persian speedwell: 5 (Herbicidal rate of 90% or more (almost completely withered))

## CCOc1ccccc1-c1sc2cc(OCc3ccccc3)ccc2c1-c1c(O)c(C)nn(C)c1=O [3-119]
[1]; [32]
  Herbicidal effect, A: late watergrass: 3 (Herbicidal rate of 40% or more and less than 70%)
[2]; [32]
  Herbicidal effect, B: Japanese bulrush: 3 (Herbicidal rate of 40% or more and less than 70%)
[3]; [32]
  Herbicidal effect, C: oval-leafed pondweed: 3 (Herbicidal rate of 40% or more and less than 70%)
[4]; 320 g/ha
  herbicidal effect on barnyard grass (H): 4 (Herbicidal rate of 70% or more and less than 90%)
[5]; 320 g/ha
  herbicidal effect on Chinese sprangletop (D): 4 (Herbicidal rate of 70% or more and less than 90%)
[6]; 320 g/ha
  herbicidal effect on rice flat sedge (E): 5 (Herbicidal rate of 90% or more (almost completely withered))
[7]
  F: southern crabgrass, herbicidal effect grade: 4 (Herbicidal rate of 70% or more and less than 90%)
[8]
  G: green foxtail, herbicidal effect grade: 3 (Herbicidal rate of 40% or more and less than 70%)
[9]
  H: barnyard grass, herbicidal effect grade: 0 (Herbicidal rate of 5% or less (almost no effect))
[10]
  I: wild oat, herbicidal effect grade: 0 (Herbicidal rate of 5% or less (almost no effect))
[11]
  J: blackgrass, herbicidal effect grade: 0 (Herbicidal rate of 5% or less (almost no effect))
[12]
  K: Italian ryegrass, herbicidal effect grade: 0 (Herbicidal rate of 5% or less (almost no effect))
[13]
  L: windgrass, herbicidal effect grade: 0 (Herbicidal rate of 5% or less (almost no effect))
[14]
  M: velvetleaf, herbicidal effect grade: 0 (Herbicidal rate of 5% or less (almost no effect))
[15]
  N: redroot pigweed, herbicidal effect grade: 3 (Herbicidal rate of 40% or more and less than 70%)
[16]
  O: lambsquarters, herbicidal effect grade: 3 (Herbicidal rate of 40% or more and less than 70%)
[17]
  P: chickweed, herbicidal effect grade: 0 (Herbicidal rate of 5% or less (almost no effect))
[18]
  R: persian speedwell, herbicidal effect grade: 5 (Herbicidal rate of 90% or more (almost completely withered))
[19]; three weeks after application
  F: southern crabgrass, herbicidal effect grade: 5 (Herbicidal rate of 90% or more (almost completely withered))
[20]; three weeks after application
  G: green foxtail, herbicidal effect grade: 5 (Herbicidal rate of 90% or more (almost completely withered))
[21]; three weeks after application
  H: barnyard grass, herbicidal effect grade: 3 (Herbicidal rate of 40% or more and less than 70%)
[22]; three weeks after application
  I: wild oat, herbicidal effect grade: 1 (Herbicidal rate of 5% or more and less than 20%)
[23]; three weeks after application
  J: blackgrass, herbicidal effect grade: 0 (Herbicidal rate of 5% or less (almost no effect))
[24]; three weeks after application
  K: Italian ryegrass, herbicidal effect grade: 1 (Herbicidal rate of 5% or more and less than 20%)
[25]; three weeks after application
  L: windgrass, herbicidal effect grade: 4 (Herbicidal rate of 70% or more and less than 90%)
[26]; three weeks after application
  M: velvetleaf, herbicidal effect grade: 4 (Herbicidal rate of 70% or more and less than 90%)
[27]; three weeks after application
  N: redroot pigweed, herbicidal effect grade: 5 (Herbicidal rate of 90% or more (almost completely withered))
[28]; three weeks after application
  O: lambsquarters, herbicidal effect grade: 5 (Herbicidal rate of 90% or more (almost completely withered))
[29]; three weeks after application
  P: chickweed, herbicidal effect grade: 5 (Herbicidal rate of 90% or more (almost completely withered))
[30]; three weeks after application
  Q: false cleavers, herbicidal effect grade: 5 (Herbicidal rate of 90% or more (almost completely withered))
[31]; three weeks after application
  R: persian speedwell, herbicidal effect grade: 5 (Herbicidal rate of 90% or more (almost completely withered))
